Measurements reported in article PMC11118832 (Biomolecules, 2024).
Square brackets hold non-standard residues; d marks the D form. Ends that are not written are not given here. Peptide text beside a SMILES is read from it. Lys(Me) = CNCCCC[C@H](N)C(=O)O; hLeu = CC(C)CC[C@H](N)C(=O)O

Assays:
PD-1/PD-L1 = target: T1, PD-1/PD-L1 (Homo sapiens, UniProt Q15116); assay: In vitro time-resolved FRET PD-1/PD-L1 binding assay (CisBio kit); conditions: CisBio PD-1/PD-L1 binding kit, TR FRET, 96-well; for EC50: serial dilutions in triplicate, NI = no inhibition at maximum concentration tested (* 5 μM, ** 50 μM), read-out: EC50 (Supplementary Table S1; inhibition of PD-1/PD-L1 binding by in vitro TR-FRET assay); for IC50: 4-fold serial dilutions in triplicate, freshly dissolved peptides, read-out: IC50, inhibition of PD-1/PD-L1 binding (TR FRET assay)
T1 construct: this kit uses ectodomains of PD-1 and PD-L1 that are expressed with orthogonal fusion tags (Tag-1 and Tag-2); purchased CisBio (currently Perkin-Elmer, Bedford, MA)
Protocol: Commercial PD-1/PD-L1 binding assay kit (CisBio, currently Perkin-Elmer, Bedford, MA) for time resolve fluorescent energy transfer (FRET) was used to assess peptides binding to PD-1. The assay for peptide screening was performed in a 96-well format (normal pressure), starting with 4-fold serial dilutions of each peptide in triplicate. No-peptide triplicate wells were used to assess fluorescent energy transfer in the absence of inhibition, and no-PD-1/PD-L1 triplicate wells were used to assess the background fluorescent energy transfer in the absence of PD-1/PD-L1 complexes. More detailed concentration dependences were obtained for selected peptides. Only freshly dissolved peptides were used in the assay. Various QSAR (quantitative structure activity relationship) hypotheses were tested by synthesizing batches of 10–12 peptides. In total, over one hundred candidates in ten iterations were screened for their ability to inhibit in vitro PD-1/PD-L1 binding using the commercial PD-1/PD-L1 binding assay kit (CisBio, currently Perkin-Elmer). Briefly, this kit uses ectodomains of PD-1 and PD-L1 that are expressed with orthogonal fusion tags (Tag-1 and Tag-2). It also includes two antibodies to selectively interact with these tags. The antibody against one tag is labeled with fluorescent moiety, which serves as a donor, while the other antibody is labeled with fluorescent moiety, which serves as an acceptor in fluorescent resonance energy transfer (FRET). When the complex is formed and probed with both anti-Tag-1 and anti-Tag-2 antibodies, donor and acceptor are sufficiently close, and FRET can be detected in a time-resolved (TR) manner. Inhibitors of PD-1/PD-L1 interactions prevent complex formation, leading to a decrease in TR FRET in a concentration-dependent manner, as shown in Figure 2 for four representative peptide inhibitors. Initial fourfold dilutions are exemplified by data for peptides B5.11 and B5.6 (panels A and B); examples of the more detailed follow-up concentration dependences are shown for peptides B2.4 and B2.22 (panels C and D). The potency of the inhibitors is then characterized by IC50, a concentration that inhibits TR FRET by 50%, allowing for a facile comparison of different inhibitors (Figure 2E).

[1] = pH 6.4
Protocol: We ran chemical shift mapping (CSM) experiments for four peptides, B5.11, B3.15, B5.6, and B2.22. […] CSM ^15N-HSQC experiments with unlabeled peptides (B5.11, B3.15, and B5.6) were performed on uniformly ^15N-labeled PD-1 in a buffer (two series, pH 6.4 and 6.7) containing 25 mM NaPO4, 100 mM NaCl, 1 mM DSS, 10% D2O, and 3% dDMSO (necessary to make peptides stocks). Spectra were recorded at 25 °C on a Varian INOVA 600 MHz spectrometer equipped with an inverse triple-resonance cold probe. Spectra were processed using NMRPipe (11.2 rev 2022.346.12.26) [35] and analyzed with CCPN Analysis [36] made available through NMRBox. Assignments for PD-1 were adopted from BMRB-18908. The chemical shift perturbations were calculated using the following equation [37]: Δδ=0.5(δ^2H+(αδN)^2) where the scaling factor, α, was set to 0.15.

Compound	EC50 (PD-1/PD-L1) [µM]	IC50 (PD-1/PD-L1) [µM]	Solubility / precipitation in NMR buffer [1]
CC[C@H](C)[C@H](NC(=O)[C@@H](NC(=O)[C@H](CC(=O)O)NC(C)=O)C(C)C)C(=O)N[C@H](C(=O)NCC(=O)N[C@@H](C)C(=O)N[C@@H](C)C(=O)N[C@@H](Cc1c[nH]c2ccccc12)C(=O)N[C@@H](CC(=O)O)C(=O)N[C@@H](CCCCNC)C(=O)N[C@@H](CCCCN)C(=O)N[C@@H](Cc1ccc(O)cc1)C(N)=O)C(C)C [B6.3] (Ac-DVIVGAAWD[Lys(Me)]KY-NH2)	> 5	–	–
Ac-AWDYKY-NH2 [B2.19]	> 50	–	–
Ac-DDIVGAAWDYKY-NH2 [B7.6]	> 5	–	–
Ac-DIIVGAAWDYKY-NH2 [B5.10]	> 5	–	–
Ac-DVIDGAAWDYKY-NH2 [B5.11]	0.05	0.05	–
Ac-DVIVGAAWDYKY-NH2 [B3.15]	0.13	0.13	–
Ac-DVIVGAAWDYKYLQ-NH2 [B7.5]	> 5	–	–
Ac-DVIVGAAWDYKYLT-NH2 [B7.1]	> 5	–	–
Ac-DVIVGAAWDYKYLY-NH2 [B7.4]	> 5	–	–
Ac-DVIVGASWDYKY-NH2 [B7.3]	> 5	–	–
Ac-DVIVGSAWDYKY-NH2 [B7.2]	> 5	–	–
Ac-DVWVGAAWDYKY-NH2 [B5.2]	> 5	–	–
Ac-DWIVGAAWDYKY-NH2 [B5.13]	> 5	–	–
Ac-EVIVGAAWDYKY-NH2 [B5.12]	> 5	–	–
Ac-GADYKRITVKVN-NH2 [PL-120, reference compound]	35	–	–
Ac-IVGAAWDYKY-NH2 [B3.1]	> 50	–	–
Ac-LEIKGAEWDYKY-NH2 [B3.18]	> 50	–	–
Ac-LVDVGAAWDYKY-NH2 [B3.16]	> 50	–	–
Ac-LVIVGAAWDRKY-NH2 [B3.17]	> 50	–	–
Ac-LVIVGAAWDYK-NH2 [B3.14]	> 5	–	–
Ac-LVIVGAAWDYKR-NH2 [B3.4]	21	–	–

Compound	EC50 (PD-1/PD-L1) [µM]	IC50 (PD-1/PD-L1) [µM]	Solubility / precipitation in NMR buffer [1]
Ac-LVIVGAAWDYKY-NH2 [B2.22]	0.7	0.7	too hydrophobic and precipitated totally out of the solution
Ac-LVIVGARWDYKR-NH2 [B3.7]	26	–	–
Ac-LVIVGPAWDYKY-NH2 [B3.9]	8.5	–	–
Ac-LVWVGAAWDRKY-NH2 [B3.19]	5	–	–
Ac-LVWVGAAWDYKY-NH2 [B3.2]	> 50	–	–
Ac-NVIVGAAWDYKY-NH2 [B7.7]	> 5	–	–
Ac-RSMISYGGADDYK-NH2 [B1.1]	24	–	–
Ac-RVFVFVGAAWDYKY-NH2 [B2.21]	12.7	–	–
Ac-RVKVIVGAAWDYKY-NH2 [B2.11]	55	–	–
Ac-RVLVIVGAALDYKY-NH2 [B2.30]	35	–	–
Ac-RVLVIVGAAWDYKR-NH2 [B2.7]	55	–	–
Ac-RVLVIVGAAWDYKY-NH2 [B2.1]	30	–	–
Ac-RVLVWVGAAWDYKY-NH2 [B2.18]	1	–	–
Ac-RVWVIVGAAWDYKY-NH2 [B2.12]	20	–	–
Ac-WVWVGAAWDYKY-NH2 [B3.8]	> 50	–	–
Ac-YVLVIVGAAWDKKY-NH2 [B2.26]	22	–	–
DVIVGAAWDYKY [B5.14]	> 5	–	–
IVGAAWDYKY [B3.12]	> 50	–	–
KRVLVIVGAAWDYKYE [B2.35]	10	–	–
LVIVGAAWDYKY [B3.11]	14	–	–
RVLVIVGAAWDYKY [B2.28]	11	–	–

Continued, in another order:

EC50 (PD-1/PD-L1) [µM]	IC50 (PD-1/PD-L1) [µM]	Compound	Solubility / precipitation in NMR buffer [1]
> 5	–	CC(=O)N[C@@H](CC(=O)O)C(=O)N[C@H](C(=O)N[C@@H](CCC(C)C)C(=O)N[C@@H](CC(=O)O)C(=O)NCC(=O)N[C@@H](C)C(=O)N[C@@H](C)C(=O)N[C@@H](Cc1c[nH]c2ccccc12)C(=O)N[C@@H](CC(=O)O)C(=O)N[C@@H](Cc1ccc(O)cc1)C(=O)N[C@@H](CCCCN)C(=O)N[C@@H](Cc1ccc(O)cc1)C(N)=O)C(C)C [B8.14] (Ac-DV[hLeu]DGAAWDYKY-NH2)	–
> 5	–	CC[C@H](C)[C@H](NC(=O)[C@H](CCC(C)C)NC(=O)[C@H](CC(=O)O)NC(C)=O)C(=O)N[C@@H](CC(=O)O)C(=O)NCC(=O)N[C@@H](C)C(=O)N[C@@H](C)C(=O)N[C@@H](Cc1c[nH]c2ccccc12)C(=O)N[C@@H](CC(=O)O)C(=O)N[C@@H](Cc1ccc(O)cc1)C(=O)N[C@@H](CCCCN)C(=O)N[C@@H](Cc1ccc(O)cc1)C(N)=O [B8.18] (Ac-D[hLeu]IDGAAWDYKY-NH2)	–
> 5	–	CC[C@H](C)[C@H](NC(=O)[C@@H](NC(=O)[C@@H](CC(=O)O)NC(C)=O)C(C)C)C(=O)N[C@@H](CC(=O)O)C(=O)NCC(=O)N[C@@H](C)C(=O)N[C@@H](C)C(=O)N[C@@H](Cc1c[nH]c2ccccc12)C(=O)N[C@@H](CC(=O)O)C(=O)N[C@@H](Cc1ccc(O)cc1)C(=O)N[C@@H](CCCCN)C(=O)N[C@@H](Cc1ccc(O)cc1)C(N)=O [B8.19] (Ac-[dD]VIDGAAWDYKY-NH2)	–
> 5	–	CC(=O)N[C@H](CC(=O)O)C(=O)N[C@@H](C)C(=O)N[C@@H](Cc1c[nH]c2ccccc12)C(=O)N[C@@H](CC(=O)O)C(=O)N[C@@H](Cc1ccc(O)cc1)C(=O)N[C@@H](CCCCN)C(=O)N[C@@H](Cc1ccc(O)cc1)C(N)=O [B9.3] (Ac-[dD]AWDYKY-NH2)	–
> 5	–	CC(=O)N[C@H](CCC(=O)O)C(=O)N[C@@H](C)C(=O)N[C@@H](Cc1c[nH]c2ccccc12)C(=O)N[C@@H](CC(=O)O)C(=O)N[C@@H](Cc1ccc(O)cc1)C(=O)N[C@@H](CCCCN)C(=O)N[C@@H](Cc1ccc(O)cc1)C(N)=O [B9.5] (Ac-[dE]AWDYKY-NH2)	–
> 50	–	CC(=O)N[C@H](CC(=O)O)C(=O)NCC(=O)N[C@@H](C)C(=O)N[C@@H](C)C(=O)N[C@@H](Cc1c[nH]c2ccccc12)C(=O)N[C@@H](CC(=O)O)C(=O)N[C@@H](Cc1ccc(O)cc1)C(=O)N[C@@H](CCCCN)C(=O)N[C@@H](Cc1ccc(O)cc1)C(N)=O [B9.8] (Ac-[dD]GAAWDYKY-NH2)	–
> 5	–	CC(=O)N[C@H](CC(=O)O)C(=O)N[C@@H](C)C(=O)N[C@@H](C)C(=O)N[C@@H](Cc1c[nH]c2ccccc12)C(=O)N[C@@H](CC(=O)O)C(=O)N[C@@H](Cc1ccc(O)cc1)C(=O)N[C@@H](CCCCN)C(=O)N[C@@H](Cc1ccc(O)cc1)C(N)=O [B9.9] (Ac-[dD]AAWDYKY-NH2)	–
> 5	–	Ac-DAAWDYKY-NH2 [B9.1]	–
> 5	–	Ac-DAIDGAAWDYKY-NH2 [B8.2]	–
> 5	–	Ac-DAWDYKY-NH2 [B9.2]	–
> 5	–	Ac-DGAAWDYKY-NH2 [B9.0]	–
> 5	–	Ac-DIIDGAAWDYKY-NH2 [B8.16]	–
> 5	–	Ac-DLIDGAAWDYKY-NH2 [B8.15]	–
> 5	–	Ac-DVIDGAAHDYKY-NH2 [B8.21]	–
> 5	–	Ac-DVIDGAAWDRKY-NH2 [B8.22]	–
> 5	–	Ac-DVIDGAAWDYK-NH2 [B8.24]	–
> 5	–	Ac-DVIDGAAWDYKR-NH2 [B8.23]	–

EC50 (PD-1/PD-L1) [µM]	IC50 (PD-1/PD-L1) [µM]	Compound	Solubility / precipitation in NMR buffer [1]
> 5	–	Ac-DVIDGAAWDYKYLQ-NH2 [B7.8]	–
> 5	–	Ac-DVIDGAAWDYKYLT-NH2 [B7.9]	–
6.8	–	Ac-DVIDGAAWDYRY-NH2 [B8.7]	–
> 5	–	Ac-DVIDGADWDYKY-NH2 [B8.20]	–
5.8	–	Ac-DVIDGPAWDYKY-NH2 [B8.11]	–
> 5	–	Ac-DVIDPAAWDYKY-NH2 [B8.12]	–
2.2	–	Ac-DVIEGAAWDYKY-NH2 [B8.1]	–
> 5	–	Ac-DVINGAAWDYKY-NH2 [B8.4]	–
> 5	–	Ac-DVIYGAAWDYKY-NH2 [B7.10]	–
> 5	–	Ac-DVIYGAAWDYKYLT-NH2 [B7.11]	–
> 5	–	Ac-DVLDGAAWDYKY-NH2 [B8.13]	–
> 5	–	Ac-DVVDGAAWDYKY-NH2 [B8.3]	–
> 50	–	Ac-EAAWDYKY-NH2 [B9.7]	–
> 5	–	Ac-EAWDYKY-NH2 [B9.4]	–
> 50	–	Ac-EGAAWDYKY-NH2 [B9.6]	–
> 5	–	Ac-EVIDGAAWDYKY-NH2 [B8.17]	–
> 5	–	Ac-NVIDGAAWDYKY-NH2 [B8.5]	–
